Measured values published in patent US20140193827A1 (TEVA PHARMACEUTICAL INDUSTRIES, LTD., priority 2013, published 2014).

Test system: GA-primed murine splenocytes
Assay: ANOVA-based pattern identification method
Assay type: cell-based, mouse
Conditions: UP IN generic ONLY
From the text: We sought to identify probes matching specific patterns of expression across experimental conditions using a technique that referred to as the ANOVA-based Pattern Identification Method.
To carry out the analysis in a general manner, we computed the 6 p-values required to do pairwise comparisons of all 4 conditions for all probes using the ANOVA1 function in MATLAB. We then identified sets of probes matching the desired pattern. In the example above, probes were identified as being only affected by PG if their 6 pairwise comparison pvalues matched the following pattern (pGA-PG<0.05, pPG-reference standard<0.05, pPG-Medium<0.05, pGAMedium>0.05, pGA-reference standard>0.05, preference standard-Medium>0.05).

glatiramer acetate [GA]
4930544L04RIK expression: 5.873 | 4933437N03RIK expression: 6.099 | 5330403O16RIK expression: 5.716 | 5730472N09RIK expression: 7.649 | 5830457O10RIK expression: 9.145 | 5930400G23RIK expression: 5.875 | 6330579M01RIK expression: 5.814 | 6430709H04RIK expression: 5.642 | 6720407G21RIK expression: 5.543 | 8030455F02RIK expression: 5.766 | 9030624J02RIK expression: 9.517 | 9130011J15RIK expression: 8.444 | 9330104G04RIK expression: 5.71 | 9330158H04RIK expression: 5.699 | 9330183F02RIK expression: 5.986 | 9430003J03RIK expression: 6.25 | 9430078K10RIK expression: 6.125 | 9430088N01RIK expression: 6.673 | 11110020P15RIK expression: 12.88 | A4GALT expression: 5.801 | A230005A19RIK expression: 5.83 | A230084A06RIK expression: 5.804 | ADAL expression: 6.367 | ADAR expression: 8.858 | ADPRHL2 expression: 6.783 | AI844366 expression: 5.793 | AKT2 expression: 5.919 | ALOX15 expression: 5.968 | ARFGAP2 expression: 9.429 | ARVCF expression: 5.727 | ATG3 expression: 5.593 | ATP9B expression: 5.92 | ATP13A1 expression: 9.018 | ATPBD3 expression: 6.569 | B930062B16RIK expression: 6.038 | BC017612 expression: 7.394 | BC031853 expression: 6.952 | BC037704 expression: 7.193 | BC040758 expression: 6.077 | BCKDK expression: 9.485 | BCL2L2 expression: 5.792 | BCL2L12 expression: 6.997 | BLCAP expression: 8.164 | BPHL expression: 5.714 | BTRC expression: 7.946 | BZRPL1 expression: 6.203 | C130040D06RIK expression: 5.711 | C230062L16RIK expression: 6.189 | C230092H20RIK expression: 5.902 | C730048C13RIK expression: 5.941 | C920004C08RIK expression: 11.38 | CAPZB expression: 5.854 | CAR6 expression: 5.68 | CBARA1 expression: 7.517 | CCL2 expression: 5.834 | CD44 expression: 5.953 | CD151 expression: 7.186 | CDC42BPB expression: 7.153 | CDCA1 expression: 5.663 | CEBPE expression: 6.204 | CENTD3 expression: 7.76 | CHGA expression: 5.756 | CHRM2 expression: 5.589 | CLCN1 expression: 5.787 | CLCNKB expression: 5.956 | CLEC4A3 expression: 6.547 | CNGA4 expression: 6.005 | CNTLN expression: 5.647 | COBLL1 expression: 7.08 | COL4A1 expression: 6.209 | COQ6 expression: 9.965 | COQ9 expression: 8.284 | COTL1 expression: 12.24 | CTNNA3 expression: 5.701 | CXCL14 expression: 5.622 | CYGB expression: 6.119 | D0HXS9928E expression: 9.848 | D11WSU47E expression: 7.068 | D130017N08RIK expression: 6.061 | D430013G08RIK expression: 5.658 | DACH1 expression: 5.874 | DBF4 expression: 8.57 | DHDH expression: 7.454 | DNAHC17 expression: 5.838 | DNM3 expression: 5.71 | DUS2L expression: 6.953 | E030016N13RIK expression: 6.199 | E330037I15RIK expression: 6.256 | EFCAB6 expression: 5.61 | EG665903 expression: 5.547 | ENAH expression: 5.919 | EPM2A expression: 5.76 | F830116E18RIK expression: 5.893 | FAHD1 expression: 7.177 | FAM123A expression: 5.862 | FBXL15 expression: 7.284 | FBXL21 expression: 5.656 | FGR expression: 6.972 | FOXE1 expression: 5.777 | FOXP4 expression: 6.284 | FRY expression: 5.74 | GABRG1 expression: 5.55 | GM628 expression: 5.746 | GPAA1 expression: 7.442 | GPR106, LGR8, GPCR expression: 5.814 | GSTK1 expression: 8.386 | GYPA expression: 6.898 | HIST2H2AA1 expression: 6.224 | HMGCL expression: 7.958 | HOXC10 expression: 6.132 | HSD3B2 expression: 5.776 | HTATIP2 expression: 8.787 | INTS7 expression: 9.311 | ISCA1 expression: 9.378 | ITFG2 expression: 8.148 | ITGA2B expression: 6.451 | JPH1 expression: 5.671 | KCNC3 expression: 5.962 | KIF17 expression: 5.897 | KLHDC3 expression: 7.853 | KREMEN2 expression: 6.223 | KRTCAP2 expression: 12.5338 | LOC223628 expression: 5.598 | LOC277049 expression: 5.915 | LOC277236 expression: 5.977 | LOC332300 expression: 6.243 | LOC380636 expression: 5.566 | LOC380723 expression: 5.812 | LOC382813 expression: 5.786 | LOC383439 expression: 5.708 | LOC385989 expression: 5.996 | LOC546088 expression: 5.782 | LOC677528 expression: 9.498 | LOC100045460 expression: 5.645 | LOC100046781 expression: 6.089 | LOC100047194 expression: 5.921 | LOC100047603 expression: 6.184 | LOC100048331 expression: 5.894 | LY96 expression: 7.768 | LYSMD4 expression: 6.812 | MAGEA9 expression: 5.817 | MAGEE2 expression: 5.808 | MAK10 expression: 9.516 | MAPKAPK2 expression: 10.02 | MCPT6 expression: 5.782 | MFSD7A expression: 5.961 | MKNK1 expression: 6.113 | MLANA expression: 5.769 | MOCO5 expression: 6.424 | MS4A7 expression: 6.506 | MTAP1S expression: 8.992 | MTRR expression: 6.473 | NAPA expression: 7.994 | NAPRT1 expression: 6.46 | NCDN expression: 8.408 | NEK4 expression: 5.969 | NFE2L1 expression: 9.753 | NFKB1 expression: 11.57 | NRXN1 expression: 5.957 | NSF expression: 9.95 | OLFR228 expression: 5.655 | OLFR312 expression: 5.726 | OLFR506 expression: 5.636 | OLFR519 expression: 5.669 | OLFR907 expression: 5.644 | OLFR1155 expression: 5.789 | PALLD expression: 5.641 | PALM expression: 6.421 | PCBD2 expression: 10.32 | PCDHAC1 expression: 5.69 | PCOLN3 expression: 7.171 | PDGFB expression: 6.243 | PEF1 expression: 9.307 | PKIA expression: 6.356 | PKIB expression: 5.803 | PLD1 expression: 5.927 | PRDX2 expression: 11.61 | PRPF3 expression: 10.04 | PSCD2 expression: 6.134 | PSG22 expression: 5.693 | PTPRF expression: 5.709 | R74862 expression: 6.215 | RALGPS2 expression: 8.862 | RASAL2 expression: 6.006 | RBPMS expression: 6.068 | REXO1 expression: 6.854 | RHOF expression: 9.948 | RHOT1 expression: 9.777 | RNF40 expression: 6.148 | RNF183 expression: 5.994 | RPUSD3 expression: 6.756 | RSC1A1 expression: 7.697 | SAMD10 expression: 6.984 | SARDH expression: 5.837 | SCAVENGER RECEPTOR expression: 6.161 | SCN1B expression: 5.97 | SFRS2IP expression: 9.233 | SGSM3 expression: 7.217 | SLC7A8 expression: 6.268 | SLC13A5 expression: 5.704 | SLC22A21 expression: 5.775 | SLC26A6 expression: 6.454 | SMG7 expression: 9.655 | SNCA expression: 5.875 | SOX7 expression: 6.163 | SPEN expression: 6.891 | SPIN2 expression: 6.355 | SYMPK expression: 8.402 | SYN1 expression: 5.985 | TAF3 expression: 7.199 | TCEAL5 expression: 5.768 | TCF7L2 expression: 5.717 | TFIP11 expression: 8.095 | TFRC expression: 9.789 | TG737RPW expression: 6.301 | THOC1 expression: 8.813 | TJAP1 expression: 8.168 | TMEM43 expression: 9.133 | TNXB expression: 5.703 | TRABD expression: 8.509 | TRIM2 expression: 5.778 | TRIM15 expression: 5.62 | TRPV4 expression: 5.895 | TRUB1 expression: 8.23 | TSNAXIP1 expression: 5.811 | TTC4 expression: 8.309 | TTC15 expression: 7.191 | UACA expression: 6.1 | UAP1 expression: 8.168 | UBE2A expression: 7.652 | UBE2E2 expression: 6.42 | UGP2 expression: 7.767 | USP10 expression: 6.432 | USP36 expression: 8.5 | V1RC23 expression: 5.692 | VGLL2 expression: 5.853 | WIZ expression: 7.206 | WNK2 expression: 5.719 | XPO5 expression: 7.592 | ZBTB6 expression: 6.029 | ZEB2 expression: 5.602 | ZFP162 expression: 7.652 | ZFP239 expression: 7.228 | ZFP563 expression: 5.809 | ZFP748 expression: 5.815 | ZMAT3 expression: 7.615 | ZMIZ1 expression: 7.099 | control_ILMN_1378661 expression: 5.718 | control_ILMN_1378677 expression: 5.994 | control_ILMN_1378911 expression: 5.7 | AMBRA1 expression (first AMBRA1 line (r790)): 5.749 | CAMK1 expression (first CAMK1 line (r746)): 6.416 | AMBRA1 expression (second AMBRA1 line (r797)): 8.755 | CAMK1 expression (second CAMK1 line (r762)): 5.514
